Measurements as given in ChEMBL document CHEMBL1201862, “PubChem BioAssay data set” (2004).
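Cultured in 96-well plates, cells were exposed to test compound for 48 hours across five concentrations. GI50: concentration for 50% inhibition of growth.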 Activity calls are given as the source filed them. Rule as the data show it: active = GI50 up to about 1.1 µM and inactive = higher.

Columns and labels:
Experiment in all cases: DTP human tumour cell line panel, 48 h
786-0 = tested on: 786-0
A498 = tested on: A498
A549 = tested on: A549
ACHN = tested on: ACHN
CAKI-1 = tested on: CAKI-1
CCRF-CEM = tested on: CCRF-CEM
COLO 205 = tested on: COLO 205
DLD-1 = tested on: DLD-1
DMS-114 = tested on: DMS-114
DMS-273 = tested on: DMS-273
EKVX = tested on: EKVX
HCC 2998 = tested on: HCC 2998
HCT-116 = tested on: HCT-116
HCT-15 = tested on: HCT-15
HL-60 = tested on: HL-60
HOP-18 = tested on: HOP-18
HOP-62 = tested on: HOP-62
HOP-92 = tested on: HOP-92
HT-29 = tested on: HT-29
IGROV-1 = tested on: IGROV-1
K562 = tested on: K562
KM-20L2 = tested on: KM-20L2
KM12 = tested on: KM12
LOX IMVI = tested on: LOX IMVI
LXFL 529 = tested on: LXFL 529
M14 = tested on: M14
M19-MEL = tested on: M19-MEL
MOLT-4 = tested on: MOLT-4
Malme-3M = tested on: Malme-3M
NCI-H226 = tested on: NCI-H226
NCI-H23 = tested on: NCI-H23
NCI-H460 = tested on: NCI-H460
NCI-H522 = tested on: NCI-H522
OVCAR-3 = tested on: OVCAR-3
OVCAR-4 = tested on: OVCAR-4
OVCAR-5 = tested on: OVCAR-5
OVCAR-8 = tested on: OVCAR-8
RPMI-8226 = tested on: RPMI-8226
RXF 393 = tested on: RXF 393
SF-268 = tested on: SF-268
SF-295 = tested on: SF-295
SF-539 = tested on: SF-539
SK-MEL-28 = tested on: SK-MEL-28
SK-MEL-2 = tested on: SK-MEL-2
SK-MEL-5 = tested on: SK-MEL-5
SK-OV-3 = tested on: SK-OV-3
SN12C = tested on: SN12C
SNB-19 = tested on: SNB-19
SNB-75 = tested on: SNB-75
SNB-78 = tested on: SNB-78
SR = tested on: SR
SW-620 = tested on: SW-620
TK-10 = tested on: TK-10
U-251 = tested on: U-251
UACC-257 = tested on: UACC-257
UACC-62 = tested on: UACC-62
UO-31 = tested on: UO-31
XF498 = tested on: XF498

## O=C1C/C(=C/c2ccc(/C=C3/CC(=O)N(c4cccc(Br)c4)C3=O)cc2)C(=O)N1c1cccc(Br)c1
786-0
  GI50: 58.1 µM (inactive)
A498
  GI50: > 71 µM (inactive)
A549
  GI50: > 100 µM (inactive)
ACHN
  GI50: > 100 µM (inactive)
CAKI-1
  GI50: > 100 µM (inactive)
CCRF-CEM
  GI50: 66.1 µM (inactive)
COLO 205
  GI50: > 100 µM (inactive)
DLD-1
  GI50: > 100 µM (inactive)
DMS-114
  GI50: > 100 µM (inactive)
DMS-273
  GI50: > 100 µM (inactive)
EKVX
  GI50: > 100 µM (inactive)
HCC 2998
  GI50: > 100 µM (inactive)
HCT-116
  GI50: > 100 µM (inactive)
HCT-15
  GI50: > 100 µM
HL-60
  GI50: > 100 µM (inactive)
HOP-18
  GI50: > 100 µM (inactive)
HOP-62
  GI50: > 100 µM (inactive)
HOP-92
  GI50: 50.2 µM (inactive)
HT-29
  GI50: > 100 µM (inactive)
IGROV-1
  GI50: > 100 µM (inactive)
K562
  GI50: > 67 µM (inactive)
KM-20L2
  GI50: > 100 µM (inactive)
KM12
  GI50: > 100 µM (inactive)
LOX IMVI
  GI50: > 100 µM (inactive)
LXFL 529
  GI50: > 100 µM (inactive)
M14
  GI50: > 100 µM (inactive)
M19-MEL
  GI50: > 100 µM (inactive)
MOLT-4
  GI50: 54.2 µM (inactive)
Malme-3M
  GI50: > 100 µM (inactive)
NCI-H226
  GI50: > 100 µM (inactive)
NCI-H23
  GI50: > 100 µM (inactive)
NCI-H460
  GI50: > 100 µM (inactive)
NCI-H522
  GI50: > 100 µM (inactive)
OVCAR-3
  GI50: > 100 µM (inactive)
OVCAR-4
  GI50: > 100 µM (inactive)
OVCAR-5
  GI50: > 100 µM (inactive)
OVCAR-8
  GI50: > 100 µM (inactive)
RPMI-8226
  GI50: > 100 µM (inactive)
RXF 393
  GI50: 30.1 µM (inactive)
SF-268
  GI50: > 100 µM (inactive)
SF-295
  GI50: 60.7 µM (inactive)
SF-539
  GI50: 51.5 µM (inactive)
SK-MEL-28
  GI50: > 100 µM (inactive)
SK-MEL-2
  GI50: > 100 µM (inactive)
SK-MEL-5
  GI50: > 100 µM (inactive)
SK-OV-3
  GI50: > 100 µM (inactive)
SN12C
  GI50: > 100 µM (inactive)
SNB-19
  GI50: > 100 µM (inactive)
SNB-75
  GI50: 23.5 µM (inactive)
SNB-78
  GI50: 36.2 µM (inactive)
SR
  GI50: 97.3 µM (inactive)
SW-620
  GI50: > 100 µM (inactive)
TK-10
  GI50: > 100 µM (inactive)
U-251
  GI50: > 81.7 µM (inactive)
UACC-257
  GI50: > 100 µM (inactive)
UACC-62
  GI50: > 100 µM (inactive)
UO-31
  GI50: > 100 µM (inactive)
XF498
  GI50: 26.5 µM (inactive)

## COc1ccc(CC#C/C=C/C(=O)NCC(C)C)cc1
786-0
  GI50: > 100 µM (inactive)
A549
  GI50: > 100 µM (inactive)
ACHN
  GI50: > 100 µM (inactive)
CCRF-CEM
  GI50: 74.1 µM (inactive)
COLO 205
  GI50: > 100 µM (inactive)
DLD-1
  GI50: > 100 µM (inactive)
DMS-114
  GI50: > 100 µM (inactive)
DMS-273
  GI50: > 100 µM (inactive)
EKVX
  GI50: > 100 µM (inactive)
HCC 2998
  GI50: > 100 µM (inactive)
HCT-116
  GI50: > 100 µM (inactive)
HCT-15
  GI50: > 100 µM
HL-60
  GI50: 29.5 µM (inactive)
HOP-18
  GI50: > 100 µM (inactive)
HOP-92
  GI50: > 100 µM (inactive)
HT-29
  GI50: > 100 µM (inactive)
IGROV-1
  GI50: > 100 µM (inactive)
K562
  GI50: 79.3 µM (inactive)
KM-20L2
  GI50: > 100 µM (inactive)
KM12
  GI50: > 100 µM (inactive)
LOX IMVI
  GI50: > 100 µM (inactive)
LXFL 529
  GI50: > 100 µM (inactive)
M14
  GI50: > 100 µM (inactive)
M19-MEL
  GI50: > 100 µM (inactive)
MOLT-4
  GI50: > 100 µM (inactive)
Malme-3M
  GI50: > 100 µM (inactive)
NCI-H226
  GI50: > 100 µM (inactive)
NCI-H23
  GI50: > 100 µM (inactive)
NCI-H460
  GI50: > 100 µM (inactive)
NCI-H522
  GI50: > 100 µM (inactive)
OVCAR-3
  GI50: > 100 µM (inactive)
OVCAR-4
  GI50: > 100 µM (inactive)
OVCAR-5
  GI50: > 100 µM (inactive)
OVCAR-8
  GI50: > 100 µM (inactive)
RPMI-8226
  GI50: > 100 µM (inactive)
RXF 393
  GI50: 40.3 µM (inactive)
SF-268
  GI50: > 100 µM (inactive)
SF-295
  GI50: > 100 µM (inactive)
SF-539
  GI50: > 100 µM (inactive)
SK-MEL-28
  GI50: > 100 µM (inactive)
SK-MEL-2
  GI50: > 100 µM (inactive)
SK-MEL-5
  GI50: > 100 µM (inactive)
SK-OV-3
  GI50: > 100 µM (inactive)
SN12C
  GI50: > 100 µM (inactive)
SNB-19
  GI50: > 100 µM (inactive)
SNB-75
  GI50: 55 µM (inactive)
SNB-78
  GI50: > 100 µM (inactive)
SR
  GI50: 66.1 µM (inactive)
SW-620
  GI50: > 100 µM (inactive)
TK-10
  GI50: > 100 µM (inactive)
U-251
  GI50: > 100 µM (inactive)
UACC-257
  GI50: > 100 µM (inactive)
UACC-62
  GI50: > 100 µM (inactive)
UO-31
  GI50: > 100 µM (inactive)
XF498
  GI50: > 100 µM (inactive)
